Laboratory results published in patent US7247714B2, “Protection against oxidative stress and inflammation by a cytoprotective response element” (Atherogenics, Inc., priority 2001, dated 2007).
“Also recorded” adds a separate entry of the source.

system: p3xCPRE/Luc; test: p3xCPRE/Luc reporter, transient transfection in HMEC cells; type: cell-based, human; conditions: t-BHQ 20 μM
Experimental: (§1) In an effort to determine the utility of the CPRE-Luc reporter construct for the identification of small molecular weight compounds that activate the CPRE, the p3xCPRE/Luc reporter was transiently transfected into both HeLa and endothelial cells (HMECs). […] Similar results were obtained in HeLa cells with both t-BHQ and compound A (FIG. 12b).
(§2) HMECs and HeLa cells were transiently transfected with 1 μg of 3xCPRE-Luc and 0.1 μg of pRL-SV40. One day after transfection, cells were treated with t-BHQ or compound A. Luciferase activities were determined 16 hours after exposure to tBHQ. To generate stable HeLa cell lines that contain a stably-integrated copy of the CPRE-Luc gene, HeLa cells were transfected with p3xCPRE-Luc plus pcDNA-LacZ-Hyg (an expression vector containing the hygromycin drug resistance gene) using SuperFect transfection reagent. Two days after transfection, cells were cultured in hygromycin (400 μg/ml)-containing selection medium until individual colonies were identified. The colonies were expanded and the presence of CPRE-Luc-containing clones was examined by inducible luciferase activity. All experiments are an average of at least three independent determinations for each experimental sample.

Compound	p3xCPRE/Luc activity
CC(C)(C)c1cc(O)ccc1O [t-BHQ, reference compound]	induced CPRE-dependent gene expression; also recorded: significantly increased

system: p3xCPRE/Luc; test: p3xCPRE/Luc reporter, transient transfection in HeLa cells; type: cell-based, human; conditions: t-BHQ 25 μM
Experimental: HMEC cells (passage 20) and HeLa cells were seeded into 6 well plates and were grown to approximately 60-70% confluency. Cells were transfected with 2 μg (HeLa) or 1 μg (HMEC) each of p3xCPRE/Luc reporter and Nrf-2 expression vector (an expression vector containing the full-length murine Nrf-2 gene under the control of the CMV promoter (Asakura & Karino (1990) Circ Res, 66:1045-1066). Cells were cultured for an additional 48 hours, and luciferase activity was determined (Promega). An average of at least three independent determinations were made for each experimental sample. Results are expressed as ratio of firefly/renilla luciferase.
as §1, §2

Compound	p3xCPRE/Luc activity
CC(C)(C)c1cc(O)ccc1O [t-BHQ, reference compound]	significantly increased

system: murine model of allergen-induced peritonitis; test: Murine model of allergen-induced peritonitis (Type 1 hypersensitivity), eosinophil recruitment; type: in vivo, mouse; conditions: Compound G 50 mg/kg i.v., peritoneal fluid 48 hrs post-challenge
Experimental: To evaluate the anti-inflammatory potential of compound A, a murine model of Type 1 hypersensitivity was used. In this model mice are sensitized to ovalbumin and subsequently challenged with ovalbumin by intraperitoneal injection. This leads to eosinophil recruitment and accumulation in the peritoneal cavity 24-48 hours after the challenge.
6-8 week old Balb/c mice (weighing 20-30 g) were given subcutaneous injections of ovalbumin in alum (0.4 ml of 100 μg ovalbumin and 3.3 mg of Alum Inject) on days 0 and 7. The mice were challenged on day 14 with an intraperitoneal injection of ovalbumin (10 μg in 0.2 ml saline). The mice were sacrificed and peritoneal lavage fluid collected 48 hours after the challenge. The peritoneal fluid was concentrated and slide smears made using a cytospin centrifuge. Slides were stained with Diff-Quik and differential counts obtained by counting 300 cells. Compound A was administered by intravenous injection, in a vehicle composed of 95% Liposyn and 5% Tween 20, 4 or 1 hour prior to challenge. Compound A was compared to dexamethosone administered orally at a dose of 2.5 mg/kg/d.
In a common allergic inflammation, balb/C mice were divided into two groups: control/vehicle and Compound G treated. They were then sensitized to ovalbumin on days 0 and 7 with a subcutaneous injection of ovalbumin absorbed in aluminum hydroxide. The treated group was dosed i.v. 50 mg/kg in liposyn/tween and vehicle one day prior to challenge. The mice were then challenged with an intraperitoneal injection of ovalbumin on day 14 and sacrificed 48 hrs post-challenge. Peritoneal fluid was collected and spun down onto slides. Slides were stained with DiffQuik and a differential performed.

Compound	Inhibition of eosinophilia compared with vehicle controls [%]
COc1cc(/C=C/C(=O)c2ccc(OC)c(OC)c2OC)cc(-c2cccs2)c1OC [Compound G, 3-(3,4-Dimethoxy-5-thiophen-2-ylphenyl)-1-(2,3,4-trimethoxy-phenyl)propenone]	39

same assay, conditions: Compound G 50 mg/kg/d intravenous

Compound	Eosinophil levels in peritoneal fluid (percent eosinophils)
COc1cc(/C=C/C(=O)c2ccc(OC)c(OC)c2OC)cc(-c2cccs2)c1OC [Compound G, 3-(3,4-Dimethoxy-5-thiophen-2-ylphenyl)-1-(2,3,4-trimethoxy-phenyl)propenone]	significantly decreased

system: p3xCPRE/Luc; test: Activation of p3xCPRE/Luc by small molecular weight organic compounds (Table 6); type: cell-based, human; conditions: luciferase activity 16 hours after exposure
Experimental: In the in vitro assay system described above, a stable HeLa cell line was generated that contains a stably-integrated copy of the CPRE-Luc gene.
as §2, with “the compounds listed in Table 6” for “t-BHQ or compound A.”, “the compounds.” for “tBHQ.”, “SuperFeet” for “SuperFect”, “All experiments are an average of at least three independent determinations for each experimental sample.” left out

Compound	CPRE Activity: concentration to achieve a two-fold induction of CPRE activity over control [µM]
COc1ccc(-c2cccs2)cc1/C=C/C(=O)c1cc(OC)c(OC)c(OC)c1 [H, 3-(2-Methoxy-5-thiophen-2-ylphenyl)-1-(3,4,5-trimethoxy-phenyl)propenone]	2
COc1ccc(COc2ccc(C(=O)/C=C/c3cc(OC)c(OC)c(OC)c3)cc2OC)cc1 [K]	2
COc1ccc(/C=C/C(=O)c2cc(C(C)(C)C)c(OC)c(C(C)(C)C)c2)cc1 [Compound C, 1-(3,5-di-tert-butyl-4-methoxyphenyl)-3-(4-methoxyphenyl)-propenone]	5
COc1c(C(C)(C)C)cc(C(=O)/C=C/c2ccccc2)cc1C(C)(C)C [D, 1-(3,5-Di-tert-butyl-4-methoxyphenyl)-3-phenyl-propenone]	2.5
COc1cc2c(cc1OC)C(=O)/C(=C/c1cc(Br)c(OC)c(OC)c1)CC2 [J, 2-(3-Bromo-4,5-dimethoxy-benzylidene)-6,7-dimethoxy-3,4-dihydro-2H-naphthalen-1-one.]	3
COc1ccc(C(=O)/C=C/c2ccc(-c3cccs3)cc2)cc1OC [Compound I, 1-(3,4-Dimethoxy-phenyl)-3-(4-thiophen-2-ylphenyl)propenone]	8
O=C(/C=C/c1ccccc1)c1ccccc1 [B, 1,3-diphenylpropenone]	25
COc1cc(/C=C/C(=O)c2ccc(OC)c(OC)c2OC)cc(-c2cccs2)c1OC [Compound G, 3-(3,4-Dimethoxy-5-thiophen-2-ylphenyl)-1-(2,3,4-trimethoxy-phenyl)propenone]	3
CCOc1cc(OCC)c(C(=O)/C=C/c2cc(Br)c(OC)c(OC)c2)cc1OCC [E, 3-(3-Bromo-4,5-dimethoxyphenyl)-1-(2,4,5-triethoxyphenyl)-propenone]	12.5
COc1cc(OC)c(C(=O)/C=C/c2cc(Br)c(OC)c(OC)c2)cc1OC [F, 1-(3-Bromo-4,5-dimethoxyphenyl)-1-(2,4,5-trimethoxy-phenyl)propenone]	1

Results, then the compound that gave them:

CPRE Activity: concentration to achieve a two-fold induction of CPRE activity over control [µM]	Compound
1	COc1cc(OC)c(-c2cc3ccccc3s2)cc1/C=C/C(=O)c1cc(OC)c([O-])c(OC)c1.[Na+] [P, Sodium 4-[3-(5-benzo[b]thiophene-2-yl-2,4-dimethoxy-phenyl)acryloyl]-2,6-dimethoxyphenolate]
0.7	COc1cc(OC)c(-c2cc3ccccc3s2)cc1/C=C/C(=O)c1cc(OC)c(O)c(OC)c1 [O, 3-(5-Benzo[b]thiophene-2-yl-2,4-dimethoxy-phenyl)-1-(4-hydroxy-3,5-dimethoxyphenyl)-propenone]
1.4	COc1cc(OC)c(-c2cc3ccccc3s2)cc1/C=C/C(=O)c1cc(OC)c(OCC(=O)[O-])c(OC)c1.[Na+] [N, Sodium {4-[3-(5-benzo[b]thiophene-2-yl-2,4-dimethoxy-phenyl)acryloyl]-2,6-dimethoxyphenoxy}-acetate]
2.5	COc1cc(OC)c(-c2cc3ccccc3s2)cc1/C=C/C(=O)c1ccc(OC)c(OC)c1 [M, 3-(5-Benzo[b]thiophene-2-yl-2,4-dimethoxy-phenyl)-1-(3,4-dimethoxyphenyl)-propenone]
2.5	COc1cc(/C=C/C(=O)c2ccc(OC)c(OC)c2OC)cc(-c2cc3ccccc3s2)c1OC [Q, 3-(3-Benzo[b]thiophene-2-yl-4,5-dimethoxy-phenyl)-1-(2,3,4-trimethoxy-phenyl)propenone]
0.7	COc1ccc(-c2cccs2)cc1/C=C/C(=O)c1ccc(OCc2ccccn2)c(OC)c1 [L, 1-[3-Methoxy-4-(pyridin-2-ylmethoxy)-phenyl]-3-(2-methoxy-5-thiophen-2-yl-phenyl)propenone]
14	COc1cc(OCC(=O)[O-])c(/C=C/C(=O)c2cc(OC)c(OC)c(OC)c2)cc1-c1cc2ccccc2s1.[Na+] [R, Sodium {4-benzo[b]thiophene-2-yl-5-methoxy-2-[3-oxo-3-(3,4,5-trimethoxyphenyl)-propenyl]phenoxy}-acetate]
